Where a SMILES comes first, the peptide text is derived from it. Bridges are numbered along the chain shown (N, C = ends). [ ]: non-standard residue; d: D form. 2Nal = N[C@@H](Cc1ccc2ccccc2c1)C(=O)O; Cit = NC(=O)NCCC[C@H](N)C(=O)O
Key:
MT4 [1] = assay: Compound was tested for reduction of the viability of mock infected MT-4 cell in test-II; assay type: functional; details: Homo sapiens
MT4 [2] = assay: Compound was tested for reduction of the viability of mock infected MT-4 cell in test-I; assay type: functional; details: Homo sapiens
[3] = Ratio of cytotoxic concentration (CC50) in test-II to that of EC50 of compound; assay type: functional, Homo sapiens
[4] = Ratio of cytotoxic concentration (CC50) in test-I to that of EC50 of compound; assay type: functional, Homo sapiens

SMILES	CC50 (MT4 [1]) [µM]	CC50 (MT4 [2]) [µM]	Ratio [3]	Ratio [4]
NCCCC[C@@H]1NC(=O)[C@H](CCCN=C(N)N)NC(=O)[C@H](Cc2ccc(O)cc2)NC(=O)[C@@H](NC(=O)[C@H](Cc2c[nH]c3ccccc23)NC(=O)[C@H](CCCN=C(N)N)NC(=O)[C@@H](N)CCCN=C(N)N)CSSC[C@@H](C(=O)N[C@@H](CCCN=C(N)N)C(=O)O)NC(=O)[C@H](CCCNC(N)=O)NC(=O)[C@H](CCCN=C(N)N)NC(=O)[C@H](Cc2ccc(O)cc2)NC(=O)[C@@H]2CCCN2C(=O)[C@@H](CCCCN)NC1=O	190	> 1	23000	>>120
C[C@@H]1NC(=O)[C@H](CCCN=C(N)N)NC(=O)[C@H](Cc2ccc(O)cc2)NC(=O)[C@@H](NC(=O)[C@H](Cc2ccc3ccccc3c2)NC(=O)[C@H](CCCN=C(N)N)NC(=O)[C@@H](N)CCCN=C(N)N)CSSC[C@@H](C(=O)N[C@@H](CCCN=C(N)N)C(=O)O)NC(=O)[C@H](CCCNC(N)=O)NC(=O)[C@H](CCCN=C(N)N)NC(=O)[C@H](Cc2ccc(O)cc2)NC(=O)[C@@H]2CCCN2C(=O)[C@@H](CCCCN)NC1=O		> 80		>1800
NCCCC[C@@H]1NC(=O)[C@H](CCCNC(N)=O)NC(=O)[C@H](Cc2ccc(O)cc2)NC(=O)[C@@H](NC(=O)[C@H](Cc2ccc3ccccc3c2)NC(=O)[C@H](CCCN=C(N)N)NC(=O)[C@@H](N)CCCN=C(N)N)CSSC[C@@H](C(=O)N[C@@H](CCCN=C(N)N)C(=O)O)NC(=O)[C@H](CCCNC(N)=O)NC(=O)[C@H](CCCN=C(N)N)NC(=O)[C@H](Cc2ccc(O)cc2)NC(=O)[C@@H]2CCCN2C(=O)[C@@H](CCCCN)NC1=O	310	> 80	160000	>29000
NCCCC[C@@H]1NC(=O)[C@H](CCCN=C(N)N)NC(=O)[C@H](Cc2ccc(O)cc2)NC(=O)[C@@H](NC(=O)[C@H](Cc2ccc3ccccc3c2)NC(=O)[C@H](CCCNC(N)=O)NC(=O)[C@@H](N)CCCN=C(N)N)CSSC[C@@H](C(=O)N[C@@H](CCCN=C(N)N)C(=O)O)NC(=O)[C@H](CCCNC(N)=O)NC(=O)[C@H](CCCN=C(N)N)NC(=O)[C@H](Cc2ccc(O)cc2)NC(=O)[C@@H]2CCCN2C(=O)[C@@H](CCCCN)NC1=O	260	> 80	570	>180
NCCCC[C@@H]1NC(=O)[C@H](CCCN=C(N)N)NC(=O)[C@H](Cc2ccc(O)cc2)NC(=O)[C@@H](NC(=O)[C@H](Cc2ccc3ccccc3c2)NC(=O)[C@H](CCCN=C(N)N)NC(=O)[C@@H](N)CCCN=C(N)N)CSSC[C@@H](C(=O)N[C@@H](CCCNC(N)=O)C(=O)O)NC(=O)[C@H](CCCNC(N)=O)NC(=O)[C@H](CCCN=C(N)N)NC(=O)[C@H](Cc2ccc(O)cc2)NC(=O)[C@@H]2CCCN2C(=O)[C@@H](CCCCN)NC1=O	180	> 40	200	>220
C[C@H](NC(=O)[C@@H](N)CCCN=C(N)N)C(=O)N[C@@H](Cc1ccc2ccccc2c1)C(=O)N[C@H]1CSSC[C@@H](C(=O)N[C@@H](CCCN=C(N)N)C(=O)O)NC(=O)[C@H](CCCNC(N)=O)NC(=O)[C@H](CCCN=C(N)N)NC(=O)[C@H](Cc2ccc(O)cc2)NC(=O)[C@@H]2CCCN2C(=O)[C@@H](CCCCN)NC(=O)[C@H](CCCCN)NC(=O)[C@H](CCCN=C(N)N)NC(=O)[C@H](Cc2ccc(O)cc2)NC1=O		> 80		>64
C[C@H](NC(=O)[C@H](CCCN=C(N)N)NC(=O)[C@@H](N)CCCN=C(N)N)C(=O)N[C@H]1CSSC[C@@H](C(=O)N[C@@H](CCCN=C(N)N)C(=O)O)NC(=O)[C@H](CCCNC(N)=O)NC(=O)[C@H](CCCN=C(N)N)NC(=O)[C@H](Cc2ccc(O)cc2)NC(=O)[C@@H]2CCCN2C(=O)[C@@H](CCCCN)NC(=O)[C@H](CCCCN)NC(=O)[C@H](CCCN=C(N)N)NC(=O)[C@H](Cc2ccc(O)cc2)NC1=O		> 80		>34
C[C@@H]1NC(=O)[C@@H](NC(=O)[C@H](Cc2ccc3ccccc3c2)NC(=O)[C@H](CCCN=C(N)N)NC(=O)[C@@H](N)CCCN=C(N)N)CSSC[C@@H](C(=O)N[C@@H](CCCN=C(N)N)C(=O)O)NC(=O)[C@H](CCCNC(N)=O)NC(=O)[C@H](CCCN=C(N)N)NC(=O)[C@H](Cc2ccc(O)cc2)NC(=O)[C@@H]2CCCN2C(=O)[C@@H](CCCCN)NC(=O)[C@H](CCCCN)NC(=O)[C@H](CCCN=C(N)N)NC1=O		> 80		>230
NCCCC[C@@H]1NC(=O)[C@H](CCCN=C(N)N)NC(=O)[C@H](Cc2ccc(O)cc2)NC(=O)[C@@H](NC(=O)[C@H](Cc2ccc3ccccc3c2)NC(=O)[C@H](CCCN=C(N)N)NC(=O)[C@@H](N)CCCNC(N)=O)CSSC[C@@H](C(=O)N[C@@H](CCCN=C(N)N)C(=O)O)NC(=O)[C@H](CCCNC(N)=O)NC(=O)[C@H](CCCN=C(N)N)NC(=O)[C@H](Cc2ccc(O)cc2)NC(=O)[C@@H]2CCCN2C(=O)[C@@H](CCCCN)NC1=O	280	> 80	18000	>5300
NCCCC[C@@H]1NC(=O)[C@H](CCCN=C(N)N)NC(=O)[C@H](Cc2ccc(O)cc2)NC(=O)[C@@H](NC(=O)[C@H](Cc2ccc3ccccc3c2)NC(=O)[C@H](CCCN=C(N)N)NC(=O)[C@@H](N)CCCN=C(N)N)CSSC[C@@H](C(=O)N[C@@H](CCCN=C(N)N)C(=O)O)NC(=O)[C@H](CCCNC(N)=O)NC(=O)[C@H](CCCNC(N)=O)NC(=O)[C@H](Cc2ccc(O)cc2)NC(=O)[C@@H]2CCCN2C(=O)[C@@H](CCCCN)NC1=O	310	> 80	20000	>5300
C[C@@H]1NC(=O)[C@H](CCCN=C(N)N)NC(=O)[C@H](Cc2ccc(O)cc2)NC(=O)[C@@H]2CCCN2C(=O)[C@@H](CCCCN)NC(=O)[C@H](CCCCN)NC(=O)[C@H](CCCN=C(N)N)NC(=O)[C@H](Cc2ccc(O)cc2)NC(=O)[C@@H](NC(=O)[C@H](Cc2ccc3ccccc3c2)NC(=O)[C@H](CCCN=C(N)N)NC(=O)[C@@H](N)CCCN=C(N)N)CSSC[C@@H](C(=O)N[C@@H](CCCN=C(N)N)C(=O)O)NC1=O		55		3300
C[C@@H]1NC(=O)[C@H](Cc2ccc(O)cc2)NC(=O)[C@@H]2CCCN2C(=O)[C@@H](CCCCN)NC(=O)[C@H](CCCCN)NC(=O)[C@H](CCCN=C(N)N)NC(=O)[C@H](Cc2ccc(O)cc2)NC(=O)[C@@H](NC(=O)[C@H](Cc2ccc3ccccc3c2)NC(=O)[C@H](CCCN=C(N)N)NC(=O)[C@@H](N)CCCN=C(N)N)CSSC[C@@H](C(=O)N[C@@H](CCCN=C(N)N)C(=O)O)NC(=O)[C@H](CCCNC(N)=O)NC1=O		> 80		>4800
NCCCC[C@@H]1NC(=O)[C@H](CCCN=C(N)N)NC(=O)[C@H](Cc2ccc(O)cc2)NC(=O)[C@@H](NC(=O)[C@H](Cc2ccc3ccccc3c2)NC(=O)[C@H](CCCN=C(N)N)NC(=O)[C@@H](N)CCCN=C(N)N)CSSC[C@@H](C(=O)N[C@@H](CCCN=C(N)N)C(=O)O)NC(=O)[C@H](CCCNC(N)=O)NC(=O)[C@H](CCCN=C(N)N)NC(=O)[C@H](Cc2ccc(O)cc2)NC(=O)[C@@H]2CCCN2C(=O)[C@@H](CCCNC(N)=O)NC1=O	280	> 80	69000	>20000
NCCCC[C@H]1NC(=O)[C@H](CCCNC(N)=O)NC(=O)[C@H](CCCN=C(N)N)NC(=O)[C@H](Cc2ccc(O)cc2)NC(=O)[C@@H](NC(=O)[C@H](Cc2ccc3ccccc3c2)NC(=O)[C@H](CCCN=C(N)N)NC(=O)[C@@H](N)CCCN=C(N)N)CSSC[C@@H](C(=O)N[C@@H](CCCN=C(N)N)C(=O)O)NC(=O)[C@H](CCCNC(N)=O)NC(=O)[C@H](CCCN=C(N)N)NC(=O)[C@H](Cc2ccc(O)cc2)NC(=O)[C@@H]2CCCN2C1=O	270	> 80	>16000	>5000
C[C@@H]1NC(=O)[C@@H]2CCCN2C(=O)[C@@H](CCCCN)NC(=O)[C@H](CCCCN)NC(=O)[C@H](CCCN=C(N)N)NC(=O)[C@H](Cc2ccc(O)cc2)NC(=O)[C@@H](NC(=O)[C@H](Cc2ccc3ccccc3c2)NC(=O)[C@H](CCCN=C(N)N)NC(=O)[C@@H](N)CCCN=C(N)N)CSSC[C@@H](C(=O)N[C@@H](CCCN=C(N)N)C(=O)O)NC(=O)[C@H](CCCNC(N)=O)NC(=O)[C@H](CCCN=C(N)N)NC1=O		> 80		>4500
C[C@H]1NC(=O)[C@H](CCCCN)NC(=O)[C@H](CCCN=C(N)N)NC(=O)[C@H](Cc2ccc(O)cc2)NC(=O)[C@@H](NC(=O)[C@H](Cc2ccc3ccccc3c2)NC(=O)[C@H](CCCN=C(N)N)NC(=O)[C@@H](N)CCCN=C(N)N)CSSC[C@@H](C(=O)N[C@@H](CCCN=C(N)N)C(=O)O)NC(=O)[C@H](CCCNC(N)=O)NC(=O)[C@H](CCCN=C(N)N)NC(=O)[C@H](Cc2ccc(O)cc2)NC(=O)[C@@H]2CCCN2C1=O		> 80		>5200
CC(N)C(=O)N[C@@H](CCCN=C(N)N)C(=O)N[C@@H](Cc1ccc2ccccc2c1)C(=O)N[C@H]1CSSC[C@@H](C(=O)N[C@@H](CCCN=C(N)N)C(=O)O)NC(=O)[C@H](CCCNC(N)=O)NC(=O)[C@H](CCCN=C(N)N)NC(=O)[C@H](Cc2ccc(O)cc2)NC(=O)[C@@H]2CCCN2C(=O)[C@@H](CCCCN)NC(=O)[C@H](CCCCN)NC(=O)[C@H](CCCN=C(N)N)NC(=O)[C@H](Cc2ccc(O)cc2)NC1=O (some centres undefined)		> 40		>750
C[C@H](NC(=O)[C@@H]1CSSC[C@H](NC(=O)[C@H](Cc2ccc3ccccc3c2)NC(=O)[C@H](CCCN=C(N)N)NC(=O)[C@@H](N)CCCN=C(N)N)C(=O)N[C@@H](Cc2ccc(O)cc2)C(=O)N[C@@H](CCCN=C(N)N)C(=O)N[C@@H](CCCCN)C(=O)N[C@H](CCCCN)C(=O)N2CCC[C@H]2C(=O)N[C@@H](Cc2ccc(O)cc2)C(=O)N[C@@H](CCCN=C(N)N)C(=O)N[C@@H](CCCNC(N)=O)C(=O)N1)C(=O)O		> 80		>210
C[C@@H]1NC(=O)[C@@H](CCCCN)NC(=O)[C@H](CCCCN)NC(=O)[C@H](CCCN=C(N)N)NC(=O)[C@H](Cc2ccc(O)cc2)NC(=O)[C@@H](NC(=O)[C@H](Cc2ccc3ccccc3c2)NC(=O)[C@H](CCCN=C(N)N)NC(=O)[C@@H](N)CCCN=C(N)N)CSSC[C@@H](C(=O)N[C@@H](CCCN=C(N)N)C(=O)O)NC(=O)[C@H](CCCNC(N)=O)NC(=O)[C@H](CCCN=C(N)N)NC(=O)[C@H](Cc2ccc(O)cc2)NC1=O (H-RR[2Nal]CYRK[dK]AYR[Cit]CR-OH; disulfide 4-13)		> 80		>4700

— ChEMBL document CHEMBL1132828, “Pharmacophore identification of a specific CXCR4 inhibitor, T140, leads to development of effective anti-HIV agents with very high selectivity indexes” (Bioorg Med Chem Lett, 2000)
